Data from PubChem BioAssay AID1918932 (Molecular Pharmacology Branch, DTP, NCI, 2023).

System: 171881-019-R-J1-PDC complex spheroid viability
Test: Anticancer human tumor 171881-019-R-J1-PDC patient-derived invasive breast carcinoma cell line growth inhibition
Conditions: for IC50: curve of first compound; for viability, T/C: stronger effect = lower value
Procedure, shortened: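 Multicellular complex spheroids of tumor cells with human endothelial cells (HUVEC) and mesenchymal stem cells; the LSD1 inhibitor iadademstat was combined with standard-of-care or investigational agents. Top concentration at or near clinical Cmax, half-log dilutions; final DMSO ≤0.25%.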

[1] = second compound 0.1 µM, first compound 0.00949 µM
[2] = second compound 0.1 µM, first compound 0.03 µM
[3] = second compound 0.1 µM, first compound 0.0949 µM
[4] = second compound 0.1 µM, first compound 0.3 µM
[5] = second compound 0.1 µM, first compound 0.949 µM
[6] = second compound 0.1 µM, first compound 3 µM
[7] = second compound 0.316 µM, first compound 0.00949 µM
[8] = second compound 0.316 µM, first compound 0.03 µM
[9] = second compound 0.316 µM, first compound 0.0949 µM
[10] = second compound 0.316 µM, first compound 0.3 µM
[11] = second compound 0.316 µM, first compound 0.949 µM
[12] = second compound 0.316 µM, first compound 3 µM
[13] = second compound 1 µM, first compound 0.00949 µM
[14] = second compound 1 µM, first compound 0.03 µM
[15] = second compound 1 µM, first compound 0.0949 µM
[16] = second compound 1 µM, first compound 0.3 µM
[17] = second compound 1 µM, first compound 0.949 µM
[18] = second compound 1 µM, first compound 3 µM
[19] = second compound 3.16 µM, first compound 0.00949 µM
[20] = second compound 3.16 µM, first compound 0.03 µM
[21] = second compound 3.16 µM, first compound 0.0949 µM
[22] = second compound 3.16 µM, first compound 0.3 µM
[23] = second compound 3.16 µM, first compound 0.949 µM
[24] = second compound 3.16 µM, first compound 3 µM
[25] = second compound 10 µM, first compound 0.00949 µM
[26] = second compound 10 µM, first compound 0.03 µM
[27] = second compound 10 µM, first compound 0.0949 µM
[28] = second compound 10 µM, first compound 0.3 µM
[29] = second compound 10 µM, first compound 0.949 µM
[30] = second compound 10 µM, first compound 3 µM
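Note: spheroids exposed to agents for 7 days after 3 days growth.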

| Compound | IC50 (second compound 0.1 µM) [nM] | IC50 (second compound 0.316 µM) [nM] | IC50 (second compound 1 µM) [nM] | IC50 (second compound 3.16 µM) [nM] | IC50 (second compound 10 µM) [nM] | viability, T/C [1] [%] | viability, T/C [2] [%] | viability, T/C [3] [%] | viability, T/C [4] [%] | viability, T/C [5] [%] | viability, T/C [6] [%] | viability, T/C [7] [%] | viability, T/C [8] [%] | viability, T/C [9] [%] | viability, T/C [10] [%] | viability, T/C [11] [%] | viability, T/C [12] [%] | viability, T/C [13] [%] | viability, T/C [14] [%] | viability, T/C [15] [%] | further results |
| --- | --- | --- | --- | --- | --- | --- | --- | --- | --- | --- | --- | --- | --- | --- | --- | --- | --- | --- | --- | --- | --- |
| NS(=O)(=O)OCC1CC(n2ccc3c(NC4CCc5ccccc54)ncnc32)CC1O (stereo not given) + NC1CCC(NC2CC2c2ccccc2)CC1 | 41.9 | 42.7 | 31.1 | 32.7 | 39 | 109 | 58.5 | 29.3 | 23.5 | 27.9 | 23.8 | 110 | 58.5 | 30.5 | 27.9 | 27.3 | 21.7 | 103 | 50.7 | 23.8 | viability, T/C [16]: 23.3%; viability, T/C [17]: 27.7%; viability, T/C [18]: 20.5%; viability, T/C [19]: 109%; viability, T/C [20]: 51.2%; viability, T/C [21]: 31.7%; viability, T/C [22]: 22.8%; viability, T/C [23]: 25.1%; viability, T/C [24]: 19.2%; viability, T/C [25]: 94.6%; viability, T/C [26]: 54.8%; viability, T/C [27]: 33.1%; viability, T/C [28]: 26.1%; viability, T/C [29]: 21.1%; viability, T/C [30]: 16.9% |
| Nc1ccccc1NC(=O)c1ccc(CNC(=O)OCc2cccnc2)cc1 + NC1CCC(NC2CC2c2ccccc2)CC1 | 263 | 252 | 277 | 288 | 325 | 86.6 | 85.5 | 117 | 43.9 | 2.1 | 0.32 | 89.2 | 98.6 | 119 | 40.8 | 2.42 | 0.34 | 91.3 | 104 | 116 | viability, T/C [16]: 46%; viability, T/C [17]: 1.97%; viability, T/C [18]: 0.29%; viability, T/C [19]: 87.8%; viability, T/C [20]: 96%; viability, T/C [21]: 115%; viability, T/C [22]: 48.1%; viability, T/C [23]: 2.3%; viability, T/C [24]: 0.22%; viability, T/C [25]: 92.5%; viability, T/C [26]: 109%; viability, T/C [27]: 126%; viability, T/C [28]: 53.6%; viability, T/C [29]: 2.32%; viability, T/C [30]: 0.27% |
| O=C(C=Cc1cccc(S(=O)(=O)Nc2ccccc2)c1)NO + NC1CCC(NC2CC2c2ccccc2)CC1 | 441 | 387 | 371 | 370 | 363 | 81.7 | 86.9 | 112 | 69.3 | 10.8 | 0.16 | 92.8 | 104 | 112 | 63.5 | 5.13 | 0.17 | 101 | 108 | 100 | viability, T/C [16]: 59%; viability, T/C [17]: 10.2%; viability, T/C [18]: 5.62%; viability, T/C [19]: 93.4%; viability, T/C [20]: 105%; viability, T/C [21]: 97%; viability, T/C [22]: 58.9%; viability, T/C [23]: 9.02%; viability, T/C [24]: 0.15%; viability, T/C [25]: 84.1%; viability, T/C [26]: 93%; viability, T/C [27]: 111%; viability, T/C [28]: 59.1%; viability, T/C [29]: 7.76%; viability, T/C [30]: 0.33% |
